From ChEMBL document CHEMBL3045945, “INHIBITORS OF FILARIAL GAMMA-GLUTAMYL CYCLE ENZYMES AS POSSIBLE MACROFILARICIDAL AGENTS” (Med Chem Res, 2004) come the findings set out here.

Counter-ions that a name gives are not always drawn. Active and inactive are the calls of the source. The rule behind the calls is not given here.

One assay relates to Setaria cervi. Kind of assay: Antifilarial activity against Setaria cervi assessed as change in GSH level at 250 uM after 6 hr by RP-HPLC analysis. It counts as functional.
The target in assay [1] is Glutathione hydrolase 1 proenzyme (Rattus norvegicus, UniProt P07314). Kind of assay: Inhibition of Rattus norvegicus Wistar (rat) rat Gamma-glutamyltranspeptidase using L-gamma-glutamyl-p-nitroanilide as substrate incubated for 15 min prior to substrate addition by spectrophotometric analysis.
Chain of Glutathione hydrolase 1 proenzyme (P07314 1-379 limits assumed): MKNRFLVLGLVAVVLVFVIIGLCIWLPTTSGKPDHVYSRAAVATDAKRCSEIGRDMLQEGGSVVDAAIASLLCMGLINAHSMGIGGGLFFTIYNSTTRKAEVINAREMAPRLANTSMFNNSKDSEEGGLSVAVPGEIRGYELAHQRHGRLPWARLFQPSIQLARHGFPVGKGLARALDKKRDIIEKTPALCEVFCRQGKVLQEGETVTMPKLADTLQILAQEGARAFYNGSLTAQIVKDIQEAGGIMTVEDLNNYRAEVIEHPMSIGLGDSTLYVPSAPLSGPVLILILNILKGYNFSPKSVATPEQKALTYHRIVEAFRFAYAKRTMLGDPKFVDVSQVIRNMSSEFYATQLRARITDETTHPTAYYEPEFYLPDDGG
Chain of Glutathione hydrolase 1 proenzyme (P07314 380-568 limits assumed): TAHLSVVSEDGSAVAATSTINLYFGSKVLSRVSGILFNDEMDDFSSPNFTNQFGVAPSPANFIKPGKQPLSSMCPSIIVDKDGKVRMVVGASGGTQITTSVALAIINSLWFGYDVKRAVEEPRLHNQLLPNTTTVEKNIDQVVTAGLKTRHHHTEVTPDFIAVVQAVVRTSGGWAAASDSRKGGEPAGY

`CCOC(=O)CC(NCCCCCCCNC(CC(=O)OCC)[C@H]1O[C@@H]2OC(C)(C)OC2[C@H]1OCc1ccccc1)C1OC2OC(C)(C)O[C@H]2[C@@H]1OCc1ccccc1` (single isomer, unassigned): the Activity with Setaria cervi is reported as 15.9%. The same measure, in the same setting: the entry for `CCCCCCCCCCCCCC(=O)Oc1ccc2c(C)cc(=O)oc2c1` is “inactive”; for `CCOC(=O)CC(NCCCCCCCNC(CC(=O)OCC)[C@@H]1O[C@H]2OC(C)(C)O[C@H]2[C@@H]1OC)[C@H]1O[C@@H]2OC(C)(C)O[C@@H]2[C@H]1OC` (some centres not stated) it is 39.04%. Still for that read-out and setting: the figure for `CCOC(=O)CC(NCCCCCCCCCCCCNC(CC(=O)OCC)[C@@H]1O[C@H]2OC(C)(C)O[C@H]2[C@@H]1OC)[C@H]1O[C@@H]2OC(C)(C)O[C@@H]2[C@H]1OC` (stereo in doubt) is 37.43%.

For `Cc1cc2oc(=O)cc(C)c2cc1C`, in the assay on Setaria cervi, the Activity is on record as 42.07%.

`CCCc1cc(=O)oc2cc(OCC(=O)OCC)ccc12`: the Activity with Setaria cervi turned out to be 5.75%. Still for that read-out and setting: the figure for `CO[C@@H]1[C@H]2OC(C)(C)O[C@H]2O[C@@H]1CNCCCCCCCCCCNC[C@@H]1O[C@H]2OC(C)(C)O[C@H]2[C@@H]1OC` is 33.14%. The same measure, in the same setting: then `CC1=CC(=O)c2ccccc2C1=O` [MENADIONE], with 96.04%. Still for that read-out and setting: the figure for `CCOC(=O)CC(NCCCCCCCCCCNC(CC(=O)OCC)[C@@H]1O[C@H]2OC(C)(C)O[C@H]2[C@@H]1OC)[C@H]1O[C@@H]2OC(C)(C)O[C@@H]2[C@H]1OC` (some centres not stated) is 48%; for `CC1(C)O[C@@H]2O[C@@H](CNCCCCCCCCCCNC[C@H]3O[C@@H]4OC(C)(C)O[C@@H]4[C@H]3OCc3ccccc3)[C@@H](OCc3ccccc3)[C@@H]2O1` it is 52.5%; for `CC1(C)O[C@@H]2O[C@@H](CNCCCCCCCCCCCCNC[C@H]3O[C@@H]4OC(C)(C)O[C@@H]4[C@H]3OCc3ccccc3)[C@@H](OCc3ccccc3)[C@@H]2O1` it is 60%. As to `CO[C@@H]1[C@H]2OC(C)(C)O[C@H]2O[C@@H]1CNCCCCCCCCCCCCNC[C@@H]1O[C@H]2OC(C)(C)O[C@H]2[C@@H]1OC` (stereo in doubt), the Activity in the assay on Setaria cervi was 39%. The same measure, in the same setting: then `CC(C)=CC(=O)C=C(C)C` [PHORONE], with 93.7%. The same measure, in the same setting: then `Cc1cc(C)c2c(C)cc(=O)oc2c1`, with 65%. In the case of `CN(C)c1ccc2nc3ccc(N(C)C)cc3[s+]c2c1.[Cl-]` [METHYLENE BLUE ANHYDROUS], the Activity in the assay with Setaria cervi is 34.68%.

`N[C@@H](CO)C(=O)O` [SERINE]: the affinity in assay [1] corresponds to a Ki of 50 µM. Take `Cc1cc(=O)oc2cc(OCC(=O)NC3CCCCC3)ccc12`: the Activity in the assay with Setaria cervi came to 46%. Still for that read-out and setting: then `COC(=O)/C=C\C(=O)OC` [DIMETHYL MALEATE], with 95.82%; and `CCOC(=O)CC(NCCCNC(CC(=O)OCC)[C@@H]1O[C@H]2OC(C)(C)O[C@H]2[C@@H]1OCc1ccccc1)C1O[C@@H]2OC(C)(C)OC2[C@H]1OCc1ccccc1` (single isomer, unassigned), with 59.12%; and `Cc1cc(=O)oc2cc(OCC(=O)NCCCCCCCCCCCCN)ccc12`, with 3.22%.

Turning to `O=NN(CCCl)C(=O)NCCCl` [CARMUSTINE], the Activity in the assay on Setaria cervi is 68.97%.

Turning to `CCOC(=O)CC(NCCCCCCCCCCCCNC(CC(=O)OCC)[C@@H]1O[C@H]2OC(C)(C)O[C@H]2[C@@H]1OCc1ccccc1)[C@H]1O[C@@H]2OC(C)(C)O[C@@H]2[C@H]1OCc1ccccc1` (some centres not stated), the Activity in the assay with Setaria cervi was found to be 67%. On to `CCOC(=O)CC(NCCCNC(CC(=O)OCC)[C@@H]1O[C@H]2OC(C)(C)O[C@H]2[C@@H]1OC)[C@H]1O[C@@H]2OC(C)(C)O[C@@H]2[C@H]1OC` (some centres not stated), for which, in the assay on Setaria cervi, the Activity worked out at 14.55%.

Regarding `CO[C@H]1[C@@H](CNCCCCCCCNC[C@@H]2O[C@H]3OC(C)(C)OC3[C@@H]2OC)OC2OC(C)(C)O[C@@H]21` (single isomer, unassigned), in the assay on Setaria cervi, the Activity came to 52.54%. Still for that read-out and setting: then `CCCCS(=N)(=O)CC[C@H](N)C(=O)O` (some centres not stated) [BUTHIONINE SULFOXIME], with 35.78%; and `CCOC(=O)CC(NCCCCCCCCCCNC(CC(=O)OCC)[C@@H]1O[C@H]2OC(C)(C)O[C@H]2[C@@H]1OCc1ccccc1)[C@H]1O[C@@H]2OC(C)(C)O[C@@H]2[C@H]1OCc1ccccc1` (some centres not stated), with 58.17%.

Turning to `CC1(C)O[C@@H]2O[C@@H](CNCCCCCCCNC[C@H]3O[C@@H]4OC(C)(C)O[C@@H]4[C@H]3OCc3ccccc3)[C@@H](OCc3ccccc3)[C@@H]2O1`, the Activity in the assay with Setaria cervi is 69.29%.
